Target: Cannabinoid receptor 1 (Homo sapiens, UniProt P21554)
Test: Displacement of [3H]-CP-55940 from human CB1 receptor transfected in CHOK1 cells after 90 mins by liquid scintillation counting analysis
Assay type: cell-based, CHO-K1

Cannabinoid receptor 1, sequence (P21554 whole entry): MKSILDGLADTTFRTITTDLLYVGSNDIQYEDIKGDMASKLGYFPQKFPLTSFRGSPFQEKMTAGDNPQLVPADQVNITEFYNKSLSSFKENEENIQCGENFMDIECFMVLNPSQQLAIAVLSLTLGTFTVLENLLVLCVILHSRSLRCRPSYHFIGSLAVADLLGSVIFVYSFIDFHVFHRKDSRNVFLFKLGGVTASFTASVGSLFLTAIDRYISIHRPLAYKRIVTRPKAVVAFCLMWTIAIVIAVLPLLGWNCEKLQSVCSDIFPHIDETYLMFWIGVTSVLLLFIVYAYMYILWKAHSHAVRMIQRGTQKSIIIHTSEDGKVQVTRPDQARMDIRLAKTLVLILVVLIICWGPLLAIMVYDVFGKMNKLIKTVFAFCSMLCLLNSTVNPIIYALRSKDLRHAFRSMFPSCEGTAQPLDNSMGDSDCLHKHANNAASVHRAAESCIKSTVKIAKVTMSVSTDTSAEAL

CCOCCn1cc(C(=O)NC23CC4CC(CC(O)(C4)C2)C3)c(=O)c2cccc(OC)c21
Ki: > 10 µM
